Data published in patent US20200261596A1, “Therapeutic Particles with Peptide Boronic Acid or Boronate Ester Compounds and Methods of Making and Using Same” (Pfizer Inc., priority 2016, published 2020).
Values after ≈ are worked out from the molar mass of the structure shown. Read-outs that look alike come from different tables or passages of the source.

Key:
[1] = Pharmacologic kinetic profile in rats (plasma levels by LCMS); type: in vivo, Sprague-Dawley rats; conditions: single intravenous dose of 0.1 mg/kg, FIG. 13A
Protocol: Rats (male Sprague Dawley, approximately 300 g with jugular cannulae are given a single intravenous dose of 0.1 mg/kg free drug or passively targeted nanoparticles (PTNP) encapsulating drug at time t=0. At various times after dosing, blood samples are collected from the jugular cannulae into tubes containing lithium heparin, and plasma is prepared. Plasma levels are determined by extraction of the drug from plasma followed by LCMS analysis.

Bortezomib solubility = type: physicochemical; conditions: read-out: BTZ solubility

SMILES: CC(C)C[C@H](NC(=O)[C@H](Cc1ccccc1)NC(=O)c1cnccn1)B(O)O [Bortezomib, bortezomib]
- circulation time / plasma clearance [1]: rapidly cleared from the plasma
- solubility (Bortezomib solubility; 0.5% sodium cholate, 2% BA, 4% EA in water (water phase), aqueous with cosolvent or surfactant or cyclodextrin, Water phase: 0.5% sodium cholate, 2% BA, 4% EA in water): 1300 µg/mL (≈ 3.38 mM)
- solubility (Bortezomib solubility; benzyl alcohol:ethyl acetate 21:79 (w/w %) (oil phase), organic solvent or mixture, Oil phase: Benzyl alcohol:Ethyl acetate (BA:EA = 21:79, w/w %)): > 93000 µg/mL
- solubility (Bortezomib solubility; water (quench phase), water, Quench phase: water): 1100 µg/mL (≈ 2.86 mM)
